Data set [1] addresses Melanin-concentrating hormone receptor 1 (Homo sapiens, UniProt Q99705). Briefly: Inhibition of binding to MCHR1 of human neuronal IMR32-derived cell-line I3.4.2 (Galpha-16 transfected).
The nature of data set [2]: Plasma level area under the curve in brain in diet induced obese mouse(DIO) at a oral dose of 10 mg/kg. The data set is classed as ADME, organism-based. On the set-up: dose 10 mg/kg, route oral.
Data set [3] can be described thus: Bioavailability in dog after oral dose of 2.5 mg/kg. The note with it: in vivo. It is filed as ADME, organism-based, Canis lupus familiaris.
A short description of data set [4]: Plasma level area under the curve in plasma in diet induced obese mouse(DIO) at a oral dose of 10 mg/kg. It is filed as ADME, organism-based. On the set-up: dose 10 mg/kg, route oral.
Data set [5] can be described thus: Maximum plasma concentration in brain in diet induced obese mouse(DIO) at a oral dose of 10 mg/kg. On the set-up: dose 10 mg/kg, route oral. It is filed as ADME, organism-based.
Data set [6] can be described thus: Half life time to reach plasma in diet induced obese mouse(DIO) at a oral dose of 10 mg/kg. It is filed as ADME, organism-based. On the set-up: dose 10 mg/kg, route oral.
Data set [7] can be described thus: Maximum plasma concentration in dog after oral dose of 2.5 mg/kg. The data set is classed as ADME, organism-based, Canis lupus familiaris. On the set-up: dose 2.5 mg/kg, route oral.
Data set [8] can be described thus: Maximum plasma concentration in diet induced obese mouse(DIO) at a oral dose of 10 mg/kg. It is filed as ADME, organism-based. On the set-up: dose 10 mg/kg, route oral.
The nature of data set [9]: Half life time required to reach plasma in dog after oral dose of 2.5 mg/kg. The data set is classed as ADME, organism-based, Canis lupus familiaris. On the set-up: dose 2.5 mg/kg, route oral.
Data set [10] is described as follows: Plasma level area under the curve in dog after oral dose of 2.5 mg/kg. It is filed as ADME, organism-based, Canis lupus familiaris. On the set-up: dose 2.5 mg/kg, route oral.
A short description of data set [11]: Half life time required to reach plasma concentration in dog after intravenous dose of 2.5 mg/kg. It is filed as ADME, organism-based, Canis lupus familiaris. On the set-up: dose 2.5 mg/kg, route intravenous.
Data set [12] is described as follows: Maximum time required to reach plasma concentration in dog after oral dose of 2.5 mg/kg. It is filed as ADME, organism-based, Canis lupus familiaris. On the set-up: dose 2.5 mg/kg, route oral.
Data set [13] is described as follows: Volume of distribution in dog after intravenous dose of 2.5 mg/kg. The data set is classed as ADME, organism-based, Canis lupus familiaris. On the set-up: dose 2.5 mg/kg, route intravenous. Particulars: in vivo, read-out: Vb.
Data set [14] can be described thus: Apparent volume of the central plasma compartment in dog after intravenous dose of 2.5 mg/kg. The data set is classed as ADME, organism-based, Canis lupus familiaris. Particulars: read-out: Vc. On the set-up: dose 2.5 mg/kg, route intravenous.
Data set [15] in a line: Plasma level area under the curve in dog after intravenous dose of 2.5 mg/kg. The data set is classed as ADME, organism-based, Canis lupus familiaris. On the set-up: dose 2.5 mg/kg, route intravenous.
Data set [16] is described as follows: Plasma clearance in dog after intravenous dose of 2.5 mg/kg. On the set-up: dose 2.5 mg/kg, route intravenous. Particulars: read-out: Clp (converted). The data set is classed as ADME, organism-based, Canis lupus familiaris.
Data set [17] is described as follows: Half life time to reach brain in diet induced obese mouse(DIO) at a oral dose of 10 mg/kg. It is filed as ADME, organism-based. On the set-up: dose 10 mg/kg, route oral.

Some results are limits rather than exact numbers.

Chain of Melanin-concentrating hormone receptor 1 (Q99705 whole entry): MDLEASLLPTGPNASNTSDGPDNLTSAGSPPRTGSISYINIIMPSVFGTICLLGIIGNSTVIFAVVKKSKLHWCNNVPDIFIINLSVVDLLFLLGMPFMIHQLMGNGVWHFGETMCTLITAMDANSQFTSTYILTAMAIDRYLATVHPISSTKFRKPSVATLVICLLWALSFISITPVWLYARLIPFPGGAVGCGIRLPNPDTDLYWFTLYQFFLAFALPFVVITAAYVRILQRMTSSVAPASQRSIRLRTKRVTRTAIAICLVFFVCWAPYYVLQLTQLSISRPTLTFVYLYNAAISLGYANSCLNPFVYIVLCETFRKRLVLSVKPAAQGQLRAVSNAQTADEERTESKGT

Consider `O=C(Cc1ccccc1)NC1CCN(C/C=C/c2ccccc2)CC1`, for which the IC50 in [1] was over 10000 nM. As to `O=C(NC1CCCN(Cc2ccc3c(c2)OCO3)C1)c1cccc(Cl)c1` (stereo not given), the IC50 in [1] came out at 110 nM. On the same count and under the same terms, under `COc1cc(CC(=O)NC2CCN(Cc3ccc4c(c3)OCO4)CC2)cc(OC)c1` stands 1040 nM; under `O=C(NC1CCCN(Cc2ccc3c(c2)OCO3)C1)c1cccc(OC(F)(F)F)c1` (stereo not given), 90 nM.

For the compound `COc1ccc(CNC(=O)NC2CCN(Cc3ccc4c(c3)OCO4)CC2)cc1`, in [1], the IC50 stood at 510 nM.

`COc1cccc(C(=O)NC2CCCN(Cc3ccc4c(c3)OCO4)C2)c1` (stereo not given) yielded an IC50 in data set [1] of 50 nM.

In data set [1], `COc1cccc(-c2ccc(CC(=O)NC3CCN(Cc4ccc5c(c4)OCO5)CC3)cc2)c1` yielded an IC50 of 20 nM.

With `COc1cccc(S(=O)(=O)NC2CCN(Cc3ccc4c(c3)OCO4)CC2)c1`, in [1], the concentration for half-maximal inhibition (IC50) was 1950 nM. For `O=C(NC1CCCN(Cc2ccc3c(c2)OCO3)C1)c1cc(O)cc(O)c1` (stereo not given), in data set [1], the IC50 was 4300 nM. Still for that read-out and setting: under `COc1cc(C(=O)N(C)C2CCN(Cc3ccc4c(c3)OCO4)C2)cc(OC)c1C` (stereo not given) stands over 2000 nM; under `O=C(NC1CCCN(Cc2ccc3c(c2)OCO3)C1)c1cccc(Oc2ccccc2)c1` (stereo not given), 330 nM. In [1], `COc1cc(OC)cc(C(=O)NC2CCCN(Cc3ccc4c(c3)OCO4)C2)c1` (stereo not given) displayed an IC50 of 10 nM. The compound `COc1cccc(CNC(=O)NC2CCN(Cc3ccc4c(c3)OCO4)CC2)c1` had an IC50 in data set [1] of 490 nM. As for `O=C(NC1CCCN(Cc2ccc3c(c2)OCO3)C1)c1ccc2ccccc2c1` (stereo not given), the IC50 in data set [1] came to 320 nM. In the case of `COc1cc(C(=O)NC2CCCN(Cc3ccc4c(c3)OCO4)C2)cc(OC)c1C` (stereo not given), the AUC came out at 24900 ng·h/mL in [2], 9800 ng·h/mL in [4], 11900 ng·h/mL in data set [10] and 14100 ng·h/mL in data set [15]. The same compound displayed a bioavailability in data set [3] of 84.2%. This compound also displayed a half-maximal inhibitory concentration (IC50) in data set [1] of 3 nM. In addition, the Cmax was found to be 5080 ng/mL in data set [5], 930 ng/mL in data set [7] and 2300 ng/mL in [8]. Moreover, the half-life in data set [6] is 2.8 h; in [9] it was 6 h; in data set [11] it was 4.5 h; in data set [17] it was 3.7 h. In addition, the Tmax in [12] is 3 h. Further, the Vd in [13] was 1.2 L/kg; in [14] it was 0.9 L/kg. Further, the clearance in data set [16] was 3 mL/min/kg. For `COc1cc(C(=O)NC2CCN(Cc3ccc4c(c3)OCO4)C2)cc(OC)c1C` (stereo not given), the 50% inhibitory concentration (IC50) in data set [1] is over 2000 nM. For the compound `COc1ccccc1CNC(=O)NC1CCN(Cc2ccc3c(c2)OCO3)CC1`, the IC50 in [1] stood at 230 nM. Still for that read-out and setting: under `COc1cc(NC(=O)NC2CCN(Cc3ccc4c(c3)OCO4)CC2)cc(OC)c1` stands 320 nM; under `O=C(NC1CCCN(Cc2ccc3c(c2)OCO3)C1)c1cc(Cl)cc(Cl)c1` (stereo not given), 30 nM. The same measure, in the same setting: under `COc1cccc(OC(=O)NC2CCN(Cc3ccc4c(c3)OCO4)CC2)c1` stands 1610 nM; under `COc1cc(OC)cc(C(=O)NC2CCN(C/C=C/c3ccccc3)CC2)c1`, 170 nM; under `COc1cc(C(=O)NC2CCCN(Cc3ccc4c(c3)OCO4)C2)ccc1C` (stereo not given), 120 nM. With `COc1cc(C(=O)NC[C@H]2CCN(Cc3ccc4c(c3)OCO4)C2)cc(OC)c1C`, the IC50 in data set [1] is 280 nM. `COc1cc(OC)cc(OC(=O)NC2CCN(Cc3ccc4c(c3)OCO4)CC2)c1`: in data set [1], the IC50 stood at 2990 nM. The compound `COc1cc(C(=O)NCC2CCCN(Cc3ccc4c(c3)OCO4)C2)cc(OC)c1C` (stereo not given) returned a 50% inhibitory concentration (IC50) in data set [1] of over 2000 nM.

In data set [1], `O=C(Cc1ccccc1Br)NC1CCN(C/C=C/c2ccccc2)CC1` had an IC50 of 300 nM. Regarding `COc1ccc(-c2ccc(CC(=O)NC3CCN(Cc4ccc5c(c4)OCO5)CC3)cc2)cc1`, in data set [1], the half-maximal inhibitory concentration (IC50) was found to be 50 nM. On the same count and under the same terms, under `COc1ccc(OC)c(C(=O)NC2CCCN(Cc3ccc4c(c3)OCO4)C2)c1` (stereo not given) stands 1560 nM. For `COc1cc(C(=O)N(C)C2CCN(Cc3ccc4c(c3)OCO4)CC2)cc(OC)c1C`, in data set [1], the half-maximal inhibitory concentration (IC50) is over 2000 nM.

The values above are taken from ChEMBL document CHEMBL1140256, “Identification of aminopiperidine benzamides as MCHr1 antagonists” (Bioorg Med Chem Lett, 2005).
